Publication PMC12722308, “A phase 1 study of orally administered 5-fluoro-2’-deoxycytidine with tetrahydrouridine in patients with refractory solid tumors” (Cancer Chemotherapy and Pharmacology, 2025)
Where “and” joins values, the source holds several entries; their conditions need not be identical. Equal values may be shown once. Read-outs that look alike come from different tables or passages of the source. Marks after values point to notes of the source that are not given here.

Experiments:
[1] = Phase 1 dose escalation: adverse events (CTCAE v4.0), DLT, MTD/RP2D; assay type: in vivo, human; details: orally once daily with 3000 mg THU on days 1–6 and 8–13 of each 21-day cycle (dose level 8)
Procedure: FdCyd and THU were supplied by the NCI Division of Cancer Treatment and Diagnosis. Patients were administered both drugs orally in 21-day cycles, and dose escalation proceeded according to a traditional 3 + 3 design as per the dose escalation schema shown in Supplementary Table S1. […] Patients maintained a study diary to note any side effects or concurrent medications. The NCI Common Terminology Criteria for Adverse Events version 4.0 was used to grade adverse events. Tumor response was assessed by radiography at baseline and every 2 cycles thereafter and evaluated per RECIST version 1.1 [11]. Following determination of the maximum tolerated dose (MTD)/recommended phase 2 dose (RP2D), an additional 13 patients were enrolled on a RP2D expansion cohort for assessments of pharmacodynamic biomarkers in baseline and on-treatment tumor biopsies.
DLTs were defined as toxicities that were at least possibly related to FdCyd or THU within the first cycle of treatment and met one of the following criteria: grade ≥ 3 non-hematological toxicity (including grade 3 nausea, vomiting, or diarrhea only if refractory to standard supportive care; grade 3 electrolyte toxicities only if unable to be corrected to ≤ grade 1 within 24 h; and tumor pain only if refractory to analgesics); grade 4 thrombocytopenia; or grade 4 neutropenia lasting ≥ 5 days or febrile neutropenia. […]

[2] = Plasma pharmacokinetics by LC-MS/MS; assay type: in vivo, human; details: for Tmax: read-out: FdCyd Tmax; for Vd/F: read-out: FdCyd Vz/F; for half-life: read-out: FdCyd t½ (converted); for AUC(0-inf): read-out: FdCyd AUC0-inf; for Cmax: read-out: FdCyd Cmax; for FdCyd2h-D2: day 2; for FdCyd2h-D3: day 3
Procedure: Blood specimens for PK analysis were collected on Cycle 1 Day 1 (C1D1) prior to THU administration and then at 15, 30, and 45 min and 1, 2, 3, 4, 5, and 6 h after THU administration, as well as on C1D2 and C1D3 prior to and 2 h after THU administration. Urine specimens for PK analysis were collected on C1D1 prior to treatment and then at every void from 0 to 24 h after THU administration. All specimens for PK analysis were processed and analyzed by LC-MS/MS as described previously, and Phoenix WinNonlin software was used for data analysis.

[3] = tested on: p16-expressing vimentin-positive (V+) CTCs; assay: CellSearch analysis of CTC p16 expression, V+ CTCs; assay type: in vivo, human; details: 2 of the 22 evaluable patients; oral FdCyd + THU
Procedure: Each blood specimen for CTC analysis (7.5 mL) was collected into a 10-mL CellSave preservative tube (Menarini Silicon Biosystems). Specimens were collected pre-treatment and then 6 h after THU administration on C1D1; prior to THU administration on […] and either C1D8 or […] (at the end of the first round of drug administration); on day 1 of cycle 2 and all subsequent cycles; and optionally at time of progression. Blood sample collection for CTC analysis was performed relative to the morning dose of THU for patients on the BID dose levels (DL10-11). CTC samples were processed and analyzed for p16, cytokeratin, and vimentin as described previously. Serial baseline blood specimens (C1D1 pre, C1D1 post, and […]) were obtained in light of baseline variability in CTC counts and p16 expression, and patients were considered assessable for cytokeratin-positive (CK^+) CTC p16 response if at least one of these baseline specimens (i.e., C1D1 pre, C1D1 post, and/or […]) and at least one post-treatment specimen (collected C2D1 or later) each contained ≥ 6 CTCs, as described. For patients with multiple baseline specimens, the specimen with the highest frequency of p16-positive CTCs was considered “baseline,” as described.

[4] = cited from earlier work
[5] = All FdCyd doses + THU 3000 mg oral (n=44), geom. mean (geom. SD)
[6] = All FdCyd doses + THU 6000 mg oral (n=11), geom. mean (geom. SD)
[7] = DL1: FdCyd 30 mg + THU 3000 mg oral (n=3), geom. mean (geom. SD)
[8] = DL2: FdCyd 60 mg + THU 3000 mg oral (n=4), geom. mean (geom. SD)
[9] = DL3: FdCyd 90 mg + THU 3000 mg oral (n=3), geom. mean (geom. SD)
[10] = DL4: FdCyd 120 mg + THU 3000 mg oral (n=3), geom. mean (geom. SD)
[11] = DL5-9: FdCyd 160 mg + THU 3000 mg oral (n=31), geom. mean (geom. SD)
[12] = DL10: FdCyd 60 mg + THU 6000 mg oral (n=8), geom. mean (geom. SD)
[13] = DL11: FdCyd 80 mg + THU 6000 mg oral (n=3), geom. mean (geom. SD)
[14] = Total, all dose levels (n=55), geom. mean (geom. SD)
[15] = human, plasma, oral, Total, all dose levels (n=55), geom. mean (geom. SD)
[16] = human, plasma, po, All FdCyd doses + THU 3000 mg oral (n=44), geom. mean (geom. SD)
[17] = human, plasma, po, All FdCyd doses + THU 6000 mg oral (n=11), geom. mean (geom. SD)
[18] = human, plasma, po, DL1: FdCyd 30 mg + THU 3000 mg oral (n=3), geom. mean (geom. SD)
[19] = human, plasma, po, DL2: FdCyd 60 mg + THU 3000 mg oral (n=4), geom. mean (geom. SD)
[20] = human, plasma, po, DL3: FdCyd 90 mg + THU 3000 mg oral (n=3), geom. mean (geom. SD)
[21] = human, plasma, po, DL4: FdCyd 120 mg + THU 3000 mg oral (n=3), geom. mean (geom. SD)
[22] = human, plasma, po, DL5-9: FdCyd 160 mg + THU 3000 mg oral (n=31), geom. mean (geom. SD)
[23] = human, plasma, po, DL10: FdCyd 60 mg + THU 6000 mg oral (n=8), geom. mean (geom. SD)
[24] = human, plasma, po, DL11: FdCyd 80 mg + THU 6000 mg oral (n=3), geom. mean (geom. SD)
[25] = plasma FdCyd at 2 h, DL1: FdCyd 30 mg + THU 3000 mg oral (n=3), geom. mean (geom. SD)
[26] = plasma FdCyd at 2 h, DL2: FdCyd 60 mg + THU 3000 mg oral (n=4), geom. mean (geom. SD)
[27] = plasma FdCyd at 2 h, DL3: FdCyd 90 mg + THU 3000 mg oral (n=3), geom. mean (geom. SD)
[28] = plasma FdCyd at 2 h, DL4: FdCyd 120 mg + THU 3000 mg oral (n=3), geom. mean (geom. SD)
[29] = plasma FdCyd at 2 h, DL5-9: FdCyd 160 mg + THU 3000 mg oral (n=31), geom. mean (geom. SD)
[30] = plasma FdCyd at 2 h, DL10: FdCyd 60 mg + THU 6000 mg oral (n=8), geom. mean (geom. SD)
[31] = plasma FdCyd at 2 h, DL11: FdCyd 80 mg + THU 6000 mg oral (n=3), geom. mean (geom. SD)

Nc1nc(=O)n([C@H]2C[C@H](O)[C@@H](CO)O2)cc1F [FdCyd, 5-fluoro-2’-deoxycytidine]
Maximum tolerated dose / RP2D, FdCyd dose [1]: 160 mg
FdCyd Cl/F [2, 5]: 123 L/h and 123 (2.37)^c L/h
FdCyd Cmax/Dose [2, 5]: 4.0 (2.2)^b µg/L / mg
FdCyd Cl/F [2, 6]: 85.7 (1.65)^c L/h
FdCyd Cmax/Dose [2, 6]: 6.6 (1.6)^b µg/L / mg
FdCyd Cl/F [2, 7]: 212 (2.77) L/h
FdCyd Cmax/Dose [2, 7]: 3.0 (2.3) µg/L / mg
FdCyd Cl/F [2, 8]: 95.7 (3.08) L/h
FdCyd Cmax/Dose [2, 8]: 4.9 (3.0) µg/L / mg
FdCyd Cl/F [2, 9]: 84.7 (1.91) L/h
FdCyd Cmax/Dose [2, 9]: 5.8 (1.8) µg/L / mg
FdCyd AUC0-inf [2, 10]: 1.59 (2.43) mg/L•h
FdCyd Cl/F [2, 10]: 75.6 (2.43) L/h
FdCyd Cmax/Dose [2, 10]: 7.4 (2.0) µg/L / mg
FdCyd Cl/F [2, 11]: 133 (2.35) L/h
FdCyd Cmax/Dose [2, 11]: 3.6 (2.1) µg/L / mg
FdCyd Cl/F [2, 12]: 96.0 (1.71) L/h
FdCyd Cmax/Dose [2, 12]: 6.4 (1.6) µg/L / mg
FdCyd Cl/F [2, 13]: 65.8 (1.41) L/h
FdCyd Cmax/Dose [2, 13]: 7.1 (1.6) µg/L / mg
FdCyd Cl/F [2, 14]: 115 (2.26) L/h
FdCyd Cmax/Dose [2, 14]: 4.4 (2.1) µg/L / mg
FdCyd peak concentrations at the oral RP2D (160 mg) relative to those after the IV FdCyd RP2D of 100 mg/m^2 ([2]; comparison with ref 8): approximately 20%
Tmax [2, 15]: ~72 min
Vd/F [2, 15]: 98 L
bioavailability ([2]; human, plasma, oral, from previous clearance (142 mL/min/m^2) vs current Cl/F (123 L/h), read-out: FdCyd bioavailability in the current study): ~12%
Tmax [2, 16]: 78 min
Vd/F [2, 16]: 111 L
half-life [2, 16]: 36 min
Tmax [2, 17]: 54 min
Vd/F [2, 17]: 56 L
half-life [2, 17]: 30 min
AUC(0-inf) [2, 18]: 140 ng·h/mL
Cmax [2, 18]: 90 ng/mL
Tmax [2, 18]: 54 min
Vd/F [2, 18]: 187 L
half-life [2, 18]: 36 min
AUC(0-inf) [2, 19]: 630 ng·h/mL
Cmax [2, 19]: 290 ng/mL
Tmax [2, 19]: 60 min
Vd/F [2, 19]: 90 L
half-life [2, 19]: 42 min
AUC(0-inf) [2, 20]: 1060 ng·h/mL
Cmax [2, 20]: 530 ng/mL
Tmax [2, 20]: 90 min
Vd/F [2, 20]: 139 L
half-life [2, 20]: 66 min
Cmax [2, 21]: 890 ng/mL
Tmax [2, 21]: 72 min
Vd/F [2, 21]: 62 L
half-life [2, 21]: 36 min
AUC(0-inf) [2, 22]: 1200 ng·h/mL
Cmax [2, 22]: 580 ng/mL
Tmax [2, 22]: 84 min
Vd/F [2, 22]: 114 L
half-life [2, 22]: 36 min
AUC(0-inf) [2, 23]: 630 ng·h/mL
Cmax [2, 23]: 380 ng/mL
Tmax [2, 23]: 48 min
Vd/F [2, 23]: 63 L
half-life [2, 23]: 30 min
AUC(0-inf) [2, 24]: 1220 ng·h/mL
Cmax [2, 24]: 570 ng/mL
Tmax [2, 24]: 90 min
Vd/F [2, 24]: 44 L
half-life [2, 24]: 30 min
concentration at 2 h ([2]; human, plasma FdCyd at 2 h, day 1, DL10: FdCyd 60 mg + THU 6000 mg oral (n=8), geom. mean (geom. SD), read-out: FdCyd2h-D1): 317 ng/mL
Relationship between week 1 cumulative FdCyd exposure and occurrence of DLT ([2]; in vivo): no statistically significant relationship
FdCyd dose from which the target Cmax of 1 µM (245 ng/mL) was reached by individual patients ([2]; oral FdCyd with THU): ≥ 60 mg
FdCyd2h-D1 ([2]; plasma FdCyd at 2 h, day 1, DL2: FdCyd 60 mg + THU 3000 mg oral (n=4), geom. mean (geom. SD)): 0.203 (3.87) mg/L
FdCyd2h-D1 ([2]; plasma FdCyd at 2 h, day 1, DL3: FdCyd 90 mg + THU 3000 mg oral (n=3), geom. mean (geom. SD)): 0.525 (1.79) mg/L
FdCyd2h-D1 ([2]; plasma FdCyd at 2 h, day 1, DL4: FdCyd 120 mg + THU 3000 mg oral (n=3), geom. mean (geom. SD)): 0.611 (3.17) mg/L
FdCyd2h-D1 ([2]; plasma FdCyd at 2 h, day 1, DL5-9: FdCyd 160 mg + THU 3000 mg oral (n=31), geom. mean (geom. SD)): 0.505 (1.92) mg/L
FdCyd2h-D1 ([2]; plasma FdCyd at 2 h, day 1, DL11: FdCyd 80 mg + THU 6000 mg oral (n=3), geom. mean (geom. SD)): 0.571 (1.64) mg/L
FdCyd2h-D2 [2, 25]: 0.076 (3.80) mg/L
FdCyd2h-D2 [2, 26]: 0.169 (3.80) mg/L
FdCyd2h-D2 [2, 27]: 0.449 (1.55) mg/L
FdCyd2h-D2 [2, 28]: 0.499 (9.47) mg/L
FdCyd2h-D2 [2, 29]: 0.595 (3.29) mg/L
FdCyd2h-D2 [2, 30]: 0.559 (1.63) mg/L
FdCyd2h-D2 [2, 31]: 0.931 (1.99) mg/L
FdCyd2h-D3 [2, 25]: 0.042 (2.6) mg/L
FdCyd2h-D3 [2, 26]: 0.145 (1.14) mg/L
FdCyd2h-D3 [2, 27]: 0.460 (2.89) mg/L
FdCyd2h-D3 [2, 28]: 0.891 (2.08) mg/L
FdCyd2h-D3 [2, 29]: 0.650 (1.98) mg/L
FdCyd2h-D3 [2, 30]: 0.584 (1.60) mg/L
FdCyd2h-D3 [2, 31]: 0.745 (2.48) mg/L
Patients with increases in the proportion of p16-expressing V+ CTCs [3]: 9%
FdCyd bioavailability, previously established [4]: 10%
FdCyd clearance, previous reports ([4]; intravenously administered FdCyd with THU, ref previous reports): 142 mL/min/m^2
